Experiment [1] deals with Adiponectin expression in WT adipocytes. In words: Co-culture of adipocytes with warfarin-treated osteoblasts: adiponectin expression. It is filed as cell-based, mouse. The settings on record: warfarin-treated vs vehicle-treated osteoblasts (FIG. 7J). The method, then:
(§1) FIG. 7A-O. Esp−/− Mice Are a Model of Increased Osteocalcin Bioactivity. (FIGS. 7A-G) Comparison between 6-week-old WT, Esp−/, Ocn+/−, and Esp−/−; Ocn+/− mice. (FIG. 7A) Blood glucose levels. (FIG. 7B) Serum insulin levels. (FIG. 7C) Serum adiponectin levels. (FIG. 7D) GTT. (FIG. 7E) ITT. (FIG. 7F) GSIS test. (FIG. 7G) Quantification of the number of Ki67-immunoreactive cells in pancreatic islets. […] (FIG. 7K) Expression of Adiponectin in WT adipocytes cultured in presence of vehicle or of 1 ng/ml of commercially available carboxylated osteocalcin (Immunotopics) or bacterially produced uncarboxylated osteocalcin. (FIG. 7L) Expression of Insulin and Cyclin D1 in WT islets cultured in presence of 0.3 ng/ml of bacterially produced uncarboxylated osteocalcin or vehicle. (FIG. 7M) Metabolic parameters and total serum osteocalcin levels in control and obese patients. (FIG. 7N-O) Quantification of carboxylated osteocalcin (HA-bound osteocalcin) in control and obese patients. In (FIGS. 7A)-(C) and (FIGS. G)-(L): *p<0.05 versus WT (Student's t test); in (FIG. D)-(F), °p<0.05 versus WT and *p % 0.001 versus WT (ANOVA followed by post hoc analysis).
Co-culture of osteoblasts and adipocytes to study regulation of adiponectin expression/secretion by osteocalcin. A co-culture assay was developed between osteoblasts and adipocytes to analyze modifications in adiponectin expression. […]

In experiment [2] the test system is gamma-carboxylation of osteocalcin in osteoblasts. Kind of experiment: Osteocalcin/hydroxyapatite (HA) binding assay of medium from warfarin-treated osteoblasts. Format: cell-based, mouse. The method, then: as §1
Cell culture experiments. […]
Osteocalcin/hydroxyapatite (HA) binding assay. […] Osteocalcin present in eluates and initial samples was measured by IRMA. […]

For experiment [3], the system named is Adiponectin expression in WT adipocytes. Kind of experiment: Adiponectin expression in adipocytes treated with osteocalcin (real time PCR). Format: cell-based, mouse. The method, then:
as §1
FIG. 15. […] Wt adipocytes were treated for 4 hours with recombinant full-length osteocalcin (1-46) or a truncated form (1-36) or vehicle. Adiponectin expression was then quantified by real time PCR.
Primary adipocytes were isolated from epididymal fat pads by collagenase digestion. Briefly, minced adipose tissue was digested by 1 mg/ml collagenase P in KRP Buffer (20 mM HEPES, 120 mM NaCl, 6 mM KCl, 1.2 mM MgSO4, 1 mM CaCl2, 0.6 mM Na2HPO4, 0.4 mM NaH2PO4, 2.5 mM D-glucose, 2% BSA, pH 7.4) for 1 h at 37° C. The isolated cells were washed twice with KRP Buffer before being cultured in αMEM/1% FBS at 37° C. in 5% CO2.
Gene expression analyses. All gene expression analyses were performed using real time PCR. DNAse I-treated total RNA was converted to cDNA with the SuperScript III kit (Invitrogen). Real-time PCR were performed using the Taq SYBR Green Supermix with ROX (Biorad) on an MX3000 instrument (Stratagene); beta-actin amplification was used as an internal reference for each sample. All primers were from SuperArray.
A fragment of uncarboxylated osteocalcin is biologically active. Experiments were performed to test whether truncated osteocalcin was as effective as full-length uncarboxylated osteocalcin in stimulating adiponectin secretion from mouse adipocytes in vitro. Wild type adipocytes were treated for 4 hours with recombinant full-length osteocalcin (1-46) or a truncated form (1-36) (having a deletion of the first ten amino acids from the C-terminal end) or vehicle. Adiponectin expression was then quantified by real time PCR. […]

The test system of another experiment is wild type osteoblasts. Kind of experiment: Isoproterenol on wild type osteoblasts: mRNA levels by quantitative PCR. Format: cell-based. The text has this: The sympathetic nervous system positively regulates OST-PTP expression. It was discovered that sympathetic nervous system (SNS) activity positively regulates Esp expression in osteoblasts. […] Thus, decreasing sympathetic activity should lead to a decrease in Esp expression and thereby to an increase in the undercarboxylated, active form of osteocalcin.

The conditions of experiment [4]: hydroxyapatite competition studies; cited from earlier work.

Bridge positions count the residues as written; N and C are the ends. Square brackets hold non-standard residues; d marks the D form. Primed or numbered codes have the meaning given here. Ends that are not written are not given here. Gla′ = carboxylated glutamic acid

As to `CC(=O)CC(c1ccccc1)c1c(O)c2ccccc2oc1=O` (stereo not drawn) [warfarin], in experiment [1], the “induction of adiponectin expression in co-cultured adipocytes” value is listed as “significantly higher extent”. Also, in experiment [2] (conditioned medium of warfarin-treated osteoblasts vs vehicle (FIG. 7I)), the “percentage of osteocalcin bound to HA” value is “marked decrease”. Also, in experiment [2] (warfarin-treated vs vehicle-treated osteoblasts (FIG. 7I)), the “levels of undercarboxylated osteocalcin produced by osteoblasts” value is “elevated levels”.
As to “1-36 fragment of uncarboxylated osteocalcin: Recombinant truncated mouse osteocalcin (1-36), ten amino acids deleted from the C-terminal end (YLGASVPSPDPLEPTREQCELNPACDELSDQYGLKT; not fully specified; ends and bridges not checked; UniProt P86546 50-85, looked up, fragment)”, the “increase of Adiponectin expression” value in experiment [3] (wild type adipocytes treated for 4 hours, real time PCR, vs vehicle) is recorded as ~1.8 fold. In addition, the “potency in inducing adiponectin expression compared with native osteocalcin” value in experiment [3] (wt adipocytes, 4 hours, in vitro) is given as “as potent as native osteocalcin”.
For `CC(C)NCC(O)c1ccc(O)c(O)c1` (stereo not drawn) [isoproterenol], in the experiment on wild type osteoblasts, the “expression of gamma-carboxylase (ggcx)” value was “did not increase expression”, the expression of osteocalcin entry is recorded as “did not increase expression” and the expression of vkor result is “did not increase expression”. Besides, the “increase of Esp expression” value in the experiment with wild type osteoblasts (at 8 hours) was “remains steady”. Besides, the “increase of Esp expression” value with wild type osteoblasts (by 4 hours) is “about 80%”.
“Decarboxylated osteocalcin: thermally decarboxylated osteocalcin of the literature (YLYQWLGAPVPYPDPLEPRREVCELNPDCDELADHIGFQEAYRRFYGPV; not fully specified; ends and bridges not checked; UniProt P02818 52-100, looked up)”: the “competition with ^125I-labeled osteocalcin bound to hydroxyapatite” value in experiment [4] is on record as “fail to compete”.
For the molecule “carboxylated osteocalcin: commercially available carboxylated osteocalcin (Immunotopics) (YLYQWLGAPVPYPDPL[Gla′]PRR[Gla′]VC[Gla′]LNPDCDELADHIGFQEAYRRFYGPV; disulfide 23-29; ends not checked; also: carboxylated (Gla), sites not given here; UniProt P02818 52-100, looked up) [reference compound]”, the “induction of adiponectin expression” value in experiment [3] (WT adipocytes, 1 ng/ml (FIG. 7K)) is “failed to induce adiponectin expression”.

The values are drawn from patent US9746463B2 (THE TRUSTEES OF COLUMBIA UNIVERSITY IN THE CITY OF NEW YORK, priority 2006, dated 2017).
